According to the supplement of paper PMC7661543:
± gives the standard deviation of the averaged measurements.

Columns and labels:
Assay in all cases: relative cell number vs DMSO control (72 h) (% of DMSO); higher = less growth inhibition (more cells)
Settings in all cases: sgRNA knockout: sgNT
HCC-38 = tested on: HCC-38
Protocol: (§1)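 QMAP-Seq: a pool of 5 breast cancer cell lines (ZR-75-1, SKBR3, HCC-38, MDA-MB-231, BT-20), each carrying 12 doxycycline-inducible Cas9 sgRNA perturbations (11 knockouts plus non-targeting sgNT), was treated with compounds for 72 h at four 10-fold doses (10 nM-10 uM or 1 nM-1 uM range). Barcodes were amplified and sequenced, and cell number was interpolated from 293T spike-in standard curves. The result is expressed as % of the median of DMSO wells. Two biological replicates.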

MDA-MB-231 = tested on: MDA-MB-231
Protocol: as §1

ZR-75-1 = tested on: ZR-75-1
Protocol: as §1

BT-20 = tested on: BT-20
Protocol: as §1

SKBR3 = tested on: SKBR3
Protocol: as §1

Row | Compound | relative cell number (HCC-38; 10 nM) | relative cell number (HCC-38; 100 nM) | relative cell number (HCC-38; 1000 nM) | relative cell number (HCC-38; 10000 nM) | relative cell number (MDA-MB-231; 10 nM) | relative cell number (MDA-MB-231; 100 nM) | relative cell number (MDA-MB-231; 1000 nM) | relative cell number (MDA-MB-231; 10000 nM) | relative cell number (ZR-75-1; 10 nM) | relative cell number (ZR-75-1; 100 nM) | relative cell number (ZR-75-1; 1000 nM) | relative cell number (ZR-75-1; 10000 nM) | relative cell number (BT-20; 10 nM) | relative cell number (BT-20; 100 nM) | relative cell number (BT-20; 1000 nM) | relative cell number (BT-20; 10000 nM) | relative cell number (SKBR3; 10 nM) | relative cell number (SKBR3; 100 nM) | relative cell number (SKBR3; 1000 nM) | relative cell number (SKBR3; 10000 nM) | relative cell number (HCC-38; 1 nM) | relative cell number (MDA-MB-231; 1 nM) | relative cell number (ZR-75-1; 1 nM) | relative cell number (BT-20; 1 nM) | relative cell number (SKBR3; 1 nM)
1 | COc1cc(Nc2ncc3c(n2)-c2ccc(Cl)cc2C(c2c(F)cccc2OC)=NC3)ccc1C(=O)O [Alisertib] | 99.89 ± 0.26 | 53.9 ± 1 | 57.4 ± 9.7 | 48.4 ± 1.9 | 112 ± 7.3 | 50.3 ± 15 | 59.5 ± 1.8 | 49.3 ± 8.4 | 82.4 ± 36 | 39.4 ± 3.1 | 42 ± 10 | 35.2 ± 1.5 | 92.5 ± 23 | 66.5 ± 8 | 77.8 ± 24 | 68.3 ± 5.7 | 121 ± 14 | 80.8 ± 8.3 | 77.2 ± 11 | 91.2 ± 9.5 | – | – | – | – | –
2 | CN1CCN(CCOc2cc(OC3CCOCC3)c3c(Nc4c(Cl)ccc5c4OCO5)ncnc3c2)CC1 [Saracatinib] | 80.8 ± 18 | 87 ± 10 | 78.8 ± 13 | 70.5 ± 12 | 84.1 ± 37 | 70.3 ± 5.9 | 64.1 ± 5.6 | 33.9 ± 17 | 77.5 ± 1.3 | 97.6 ± 53 | 92.6 ± 28 | 48.2 ± 22 | 90.5 ± 32 | 85.8 ± 15 | 73.7 ± 11 | 48.3 ± 18 | 85.4 ± 45 | 95.9 ± 16 | 62.9 ± 18 | 32.6 ± 8 | – | – | – | – | –
3 | CN(C)/N=N/c1[nH]cnc1C(N)=O [Dacarbazine] | 96.4 ± 9.5 | 85 ± 22 | 90.4 ± 13 | 96.1 ± 20 | 95 ± 23 | 132 ± 22 | 125 ± 38 | 69.2 ± 6.3 | 89.3 ± 32 | 87.7 ± 18 | 93.4 ± 33 | 94.9 ± 2.4 | 73.1 ± 11 | 96.3 ± 16 | 108 ± 13 | 88.5 ± 26 | 89.1 ± 21 | 91.8 ± 8.6 | 86.9 ± 3.4 | 106 ± 30 | – | – | – | – | –
4 | CNC(=O)c1cc(Oc2ccc(NC(=O)Nc3ccc(Cl)c(C(F)(F)F)c3)cc2)ccn1 [Sorafenib] | 97.1 ± 9.2 | 133 ± 45 | 124 ± 8.8 | 54.6 ± 2.4 | 86.7 ± 5 | 93 ± 8.3 | 90.7 ± 10 | 41.1 ± 4.4 | 70.2 ± 11 | 104 ± 2.9 | 87.4 ± 19 | 41.7 ± 17 | 116 ± 3.8 | 100 ± 13 | 108 ± 36 | 50.8 ± 8.9 | 102 ± 4.4 | 97.1 ± 4.3 | 106 ± 2.8 | 47.8 ± 11 | – | – | – | – | –
5 | CCC[C@H](NC(=O)/C(C#N)=C/c1cccc(Br)n1)c1ccccc1 [WP1130] | 92.9 ± 2.6 | 103 ± 6.8 | 83.8 ± 11 | 6.78 ± 2 | 100 ± 26 | 87.3 ± 10 | 116 ± 47 | 11.7 ± 3.7 | 96.9 ± 44 | 59.7 ± 4.9 | 92.2 ± 22 | 6.81 ± 2.8 | 101 ± 53 | 78.7 ± 6.8 | 100 ± 7 | 8.98 ± 1.4 | 84 ± 36 | 51.2 ± 6.4 | 111 ± 7.9 | 8.93 ± 1.9 | – | – | – | – | –
6 | COc1cccc2cc(-c3nc([C@H]4CC[C@H](C(=O)O)CC4)n4ncnc(N)c34)[nH]c12 [OSI027] | 108 ± 20 | 107 ± 29 | 84.2 ± 1.9 | 31.2 ± 0.23 | 97.4 ± 8.9 | 128 ± 27 | 83.4 ± 29 | 58.9 ± 11 | 81.1 ± 21 | 94.9 ± 17 | 63.4 ± 24 | 25.4 ± 2 | 85.8 ± 7.3 | 113 ± 1.8 | 83.39 ± 0.24 | 52.5 ± 14 | 87.6 ± 25 | 116 ± 31 | 69.9 ± 14 | 27.8 ± 6.2 | – | – | – | – | –
7 | CC(C)[C@]12O[C@H]1[C@@H]1O[C@]13[C@]1(O[C@H]1C[C@H]1C4=C(CC[C@@]13C)C(=O)OC4)[C@@H]2O [Triptolide] | 66 ± 0.14 | 23.4 ± 5.6 | 20.5 ± 2.7 | – | 44 ± 14 | 16.5 ± 7.3 | 13.7 ± 4.4 | – | 78 ± 18 | 11.3 ± 8.5 | 7.98 ± 1.1 | – | 94.44 ± 0.19 | 39.9 ± 12 | 20.8 ± 7.7 | – | 54.6 ± 19 | 12.4 ± 9 | 8.93 ± 1.3 | – | 97.9 ± 20 | 86.6 ± 8.6 | 71.2 ± 23 | 93.1 ± 20 | 83.4 ± 9
8 | Cc1ccc(F)c(NC(=O)Nc2ccc(-c3cccc4[nH]nc(N)c34)cc2)c1 [Linifanib] | 94.4 ± 14 | 77.6 ± 10 | 118 ± 15 | 55.4 ± 4.2 | 70.5 ± 23 | 112 ± 30 | 100 ± 22 | 22.1 ± 0.58 | 86.4 ± 18 | 97.6 ± 3.9 | 93.6 ± 40 | 33.4 ± 4.6 | 73.8 ± 4.6 | 105 ± 23 | 89.1 ± 1 | 60.5 ± 3.3 | 88.8 ± 1.8 | 107 ± 3.3 | 121 ± 7.9 | 40 ± 0.42 | – | – | – | – | –
9 | OCc1ccc(-c2ccc(-c3ccc(CO)s3)o2)s1 | 118 ± 10 | 119 ± 4.3 | 110 ± 18 | 63.6 ± 18 | 117 ± 27 | 118 ± 5.9 | 102 ± 7.9 | 40 ± 2.9 | 59.9 ± 6 | 9.97 ± 1.1 | 10.6 ± 4.2 | 4.09 ± 1.8 | 110 ± 32 | 77.9 ± 13 | 24.9 ± 1.5 | 12.3 ± 6.7 | 84.8 ± 34 | 15.6 ± 0.84 | 10.9 ± 4.8 | 5.65 ± 0.36 | – | – | – | – | –
10 | Cc1ccc(S(=O)(=O)OCC(=O)Nc2ccc(C(=O)O)c(O)c2)cc1 | 119 ± 7.6 | 102 ± 1.3 | 91.8 ± 5.4 | 89.6 ± 9.3 | 128 ± 26 | 61.9 ± 5.4 | 117 ± 20 | 86.1 ± 20 | 91.2 ± 35 | 68.9 ± 12 | 99.1 ± 36 | 103 ± 8.6 | 101 ± 26 | 115 ± 40 | 108 ± 17 | 95.6 ± 33 | 83.3 ± 40 | 77.3 ± 3.9 | 93.7 ± 14 | 116 ± 58 | – | – | – | – | –
11 | CC(C)C[C@@H](C=O)NC(=O)[C@H](CC(C)C)NC(=O)[C@H](CC(C)C)NC(=O)OCc1ccccc1 [MG132] | 92.8 ± 13 | 95.7 ± 16 | 5.97 ± 0.84 | 8.104 ± 0.025 | 121 ± 1.8 | 77.3 ± 41 | 7.19 ± 1.8 | 7.81 ± 2.5 | 80.8 ± 16 | 97.1 ± 11 | 24.7 ± 3.3 | 6.78 ± 1.8 | 102 ± 21 | 113 ± 32 | 35.4 ± 8.1 | 12 ± 0.91 | 111 ± 7.2 | 99.3 ± 22 | 14 ± 1.8 | 9.81 ± 0.2 | – | – | – | – | –
12 | CS(=O)(=O)c1cccc(CNc2nc(Nc3ccc4c(c3)CCC(=O)N4)ncc2C(F)(F)F)c1 | 96.9 ± 21 | 119 ± 18 | 86.8 ± 25 | 50.5 ± 4.3 | 122 ± 34 | 123.1 ± 0.038 | 103 ± 6.8 | 32.1 ± 9.6 | 98.8 ± 47 | 170 ± 92 | 80.9 ± 4.7 | 45.1 ± 2.2 | 118 ± 28 | 145 ± 3.4 | 105.9 ± 0.85 | 57 ± 3.3 | 85.7 ± 19 | 110.3 ± 0.38 | 87.3 ± 18 | 54.4 ± 9.9 | – | – | – | – | –
